Values of other authors, collected in patent US7604185B2, “Generation of therapeutic microfoam” (BTG International Ltd., priority 2002, dated 2009).

Settings: in water at STP

O=C=O [Carbon dioxide]
Mole Fraction Solubility 10^−3: 61.5 10^−3

[He] [Helium]
Mole Fraction Solubility 10^−3: 0.7 10^−3

[N-]=[N+]=O [Nitrous oxide]
Mole Fraction Solubility 10^−3: 43.7 10^−3

O=O [Oxygen]
Mole Fraction Solubility 10^−3: 2.3 10^−3
